Laboratory results taken from patent publication US10344060B2 (priority 2013, dated 2019).
Several values for one entry are separate records, joined by “and”; a condition that tells them apart may be missing. Identical values can stand only once. Entries after “also recorded” stand apart in the source; their conditions may differ. Like-named read-outs stand apart in the source and are kept apart here.

What was measured:
[1] = tested on: TTX-sensitive Nav channels in Sprague Dawley rat DRG neuron
hNav1.7 [2] = biological target: T1, hNav1.7 (Homo sapiens, UniProt Q15858); test: cell-based; assay type: cell-based; conditions: read-out: PX hNav1.7 Tonic IC50
T1 sequence (Q15858 whole entry): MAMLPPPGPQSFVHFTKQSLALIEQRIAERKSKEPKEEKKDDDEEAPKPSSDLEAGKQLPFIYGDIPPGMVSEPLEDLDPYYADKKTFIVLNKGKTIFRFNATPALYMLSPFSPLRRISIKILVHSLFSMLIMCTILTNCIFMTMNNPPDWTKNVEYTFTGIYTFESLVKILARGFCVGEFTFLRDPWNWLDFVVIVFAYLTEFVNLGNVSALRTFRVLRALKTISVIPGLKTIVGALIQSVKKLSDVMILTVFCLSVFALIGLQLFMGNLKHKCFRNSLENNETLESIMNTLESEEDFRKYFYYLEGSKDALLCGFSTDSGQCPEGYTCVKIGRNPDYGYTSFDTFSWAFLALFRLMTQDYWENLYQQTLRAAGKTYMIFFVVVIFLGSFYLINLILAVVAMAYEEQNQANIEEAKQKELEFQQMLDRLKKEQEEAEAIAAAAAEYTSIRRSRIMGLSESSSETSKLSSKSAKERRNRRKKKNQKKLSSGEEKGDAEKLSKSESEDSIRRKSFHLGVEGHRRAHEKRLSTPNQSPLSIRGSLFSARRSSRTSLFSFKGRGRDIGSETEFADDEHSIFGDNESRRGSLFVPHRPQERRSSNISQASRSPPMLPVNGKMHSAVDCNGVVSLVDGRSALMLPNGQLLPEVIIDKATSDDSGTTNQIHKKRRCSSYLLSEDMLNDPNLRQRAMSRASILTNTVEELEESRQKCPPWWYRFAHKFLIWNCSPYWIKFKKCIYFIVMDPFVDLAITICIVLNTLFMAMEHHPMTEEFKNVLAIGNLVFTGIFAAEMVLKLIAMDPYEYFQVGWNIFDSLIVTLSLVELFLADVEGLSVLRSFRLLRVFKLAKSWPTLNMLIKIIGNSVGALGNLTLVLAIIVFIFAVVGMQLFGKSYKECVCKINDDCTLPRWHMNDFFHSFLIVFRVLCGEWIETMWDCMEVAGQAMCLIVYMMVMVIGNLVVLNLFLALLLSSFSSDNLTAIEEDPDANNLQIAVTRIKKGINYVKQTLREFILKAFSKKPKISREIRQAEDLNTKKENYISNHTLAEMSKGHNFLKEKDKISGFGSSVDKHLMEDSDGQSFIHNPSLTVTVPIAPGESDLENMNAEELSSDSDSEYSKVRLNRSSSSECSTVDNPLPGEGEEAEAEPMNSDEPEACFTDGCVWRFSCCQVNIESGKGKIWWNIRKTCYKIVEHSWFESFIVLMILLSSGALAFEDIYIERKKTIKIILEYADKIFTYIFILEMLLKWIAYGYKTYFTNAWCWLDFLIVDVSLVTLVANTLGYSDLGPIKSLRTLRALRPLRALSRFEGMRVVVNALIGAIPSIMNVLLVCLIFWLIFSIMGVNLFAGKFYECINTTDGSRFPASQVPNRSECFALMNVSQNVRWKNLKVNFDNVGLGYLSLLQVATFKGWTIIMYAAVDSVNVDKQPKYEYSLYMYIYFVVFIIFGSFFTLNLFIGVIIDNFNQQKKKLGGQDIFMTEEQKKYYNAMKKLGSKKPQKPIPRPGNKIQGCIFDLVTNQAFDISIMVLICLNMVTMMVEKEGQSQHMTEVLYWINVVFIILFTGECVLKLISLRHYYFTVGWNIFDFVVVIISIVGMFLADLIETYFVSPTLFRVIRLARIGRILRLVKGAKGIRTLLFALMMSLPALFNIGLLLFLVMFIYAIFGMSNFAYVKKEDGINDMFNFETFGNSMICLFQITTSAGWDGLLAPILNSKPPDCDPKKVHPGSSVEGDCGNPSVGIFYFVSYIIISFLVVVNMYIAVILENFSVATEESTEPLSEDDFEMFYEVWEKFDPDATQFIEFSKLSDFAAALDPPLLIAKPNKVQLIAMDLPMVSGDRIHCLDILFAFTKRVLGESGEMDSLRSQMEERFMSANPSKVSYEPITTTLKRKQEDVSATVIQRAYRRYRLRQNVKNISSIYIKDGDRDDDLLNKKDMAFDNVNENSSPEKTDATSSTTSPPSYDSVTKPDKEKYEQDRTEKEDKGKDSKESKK

in vivo [3] = conditions: male, CD-1, mouse, sc, 2 mg/kg
hNav1.5 = hNav1.5 (Homo sapiens, UniProt Q14524); test: cell-based; conditions: Table 12; ratio of PX tonic IC50 values
in vivo [4] = conditions: female, Sprague-Dawley, rat, sc
hNav1.6 = hNav1.6 (Homo sapiens, UniProt Q9UQD0); test: cell-based; assay type: cell-based; conditions: Table 15; for Nav1.6/Nav1.7: ratio of PX tonic IC50 values; for IC50: read-out: PX hNav1.6 Tonic IC50
hNav1.6, sequence (Q9UQD0 whole entry): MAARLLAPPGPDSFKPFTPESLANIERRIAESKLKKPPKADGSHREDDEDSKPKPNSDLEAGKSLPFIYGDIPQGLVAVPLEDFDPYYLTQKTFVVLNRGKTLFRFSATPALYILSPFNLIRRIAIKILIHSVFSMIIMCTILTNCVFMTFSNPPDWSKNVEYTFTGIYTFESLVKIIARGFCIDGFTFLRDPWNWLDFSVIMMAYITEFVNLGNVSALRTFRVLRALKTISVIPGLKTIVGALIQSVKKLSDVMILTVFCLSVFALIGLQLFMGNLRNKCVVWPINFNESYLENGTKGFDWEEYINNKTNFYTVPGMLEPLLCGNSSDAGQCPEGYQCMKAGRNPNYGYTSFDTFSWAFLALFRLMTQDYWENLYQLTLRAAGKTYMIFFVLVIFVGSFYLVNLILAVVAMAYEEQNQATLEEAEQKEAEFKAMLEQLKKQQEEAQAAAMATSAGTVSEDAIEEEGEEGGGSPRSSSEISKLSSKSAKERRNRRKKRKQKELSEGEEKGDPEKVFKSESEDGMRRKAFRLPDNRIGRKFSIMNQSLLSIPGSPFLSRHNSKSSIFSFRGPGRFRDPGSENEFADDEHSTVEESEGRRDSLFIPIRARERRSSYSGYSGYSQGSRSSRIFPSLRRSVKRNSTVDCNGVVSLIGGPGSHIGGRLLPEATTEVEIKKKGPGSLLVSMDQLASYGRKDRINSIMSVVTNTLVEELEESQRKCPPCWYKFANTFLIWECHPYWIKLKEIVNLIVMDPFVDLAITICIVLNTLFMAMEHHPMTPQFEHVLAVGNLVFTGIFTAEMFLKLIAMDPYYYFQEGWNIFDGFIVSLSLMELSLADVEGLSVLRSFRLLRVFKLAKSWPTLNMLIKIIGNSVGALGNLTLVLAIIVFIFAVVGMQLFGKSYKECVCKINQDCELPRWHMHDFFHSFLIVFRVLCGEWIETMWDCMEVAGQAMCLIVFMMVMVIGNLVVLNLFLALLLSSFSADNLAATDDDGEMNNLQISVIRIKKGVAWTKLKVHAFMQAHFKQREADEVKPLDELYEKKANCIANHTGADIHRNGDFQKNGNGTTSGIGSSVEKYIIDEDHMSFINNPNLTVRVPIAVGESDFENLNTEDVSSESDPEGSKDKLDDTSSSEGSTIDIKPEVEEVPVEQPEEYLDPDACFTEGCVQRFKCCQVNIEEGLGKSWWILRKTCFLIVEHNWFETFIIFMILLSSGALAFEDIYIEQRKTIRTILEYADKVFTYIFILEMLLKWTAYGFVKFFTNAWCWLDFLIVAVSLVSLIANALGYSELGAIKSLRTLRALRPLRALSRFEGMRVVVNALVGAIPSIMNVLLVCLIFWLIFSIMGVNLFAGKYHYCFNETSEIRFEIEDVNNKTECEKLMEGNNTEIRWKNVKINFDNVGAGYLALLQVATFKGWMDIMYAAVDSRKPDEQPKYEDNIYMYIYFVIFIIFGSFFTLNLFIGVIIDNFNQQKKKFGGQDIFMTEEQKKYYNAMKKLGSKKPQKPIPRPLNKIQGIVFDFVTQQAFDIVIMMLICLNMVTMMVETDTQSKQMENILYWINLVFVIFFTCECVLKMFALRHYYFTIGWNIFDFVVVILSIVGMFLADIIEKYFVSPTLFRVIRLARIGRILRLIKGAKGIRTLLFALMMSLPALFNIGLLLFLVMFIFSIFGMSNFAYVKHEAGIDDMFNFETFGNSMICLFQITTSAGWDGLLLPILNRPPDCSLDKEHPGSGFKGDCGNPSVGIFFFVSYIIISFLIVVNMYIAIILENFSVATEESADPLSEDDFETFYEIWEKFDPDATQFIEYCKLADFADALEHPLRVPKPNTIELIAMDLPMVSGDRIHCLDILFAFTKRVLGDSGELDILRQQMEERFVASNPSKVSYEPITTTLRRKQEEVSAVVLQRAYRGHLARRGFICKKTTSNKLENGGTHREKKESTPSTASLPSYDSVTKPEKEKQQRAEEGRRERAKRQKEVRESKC

[5] = for mean Cmax over the rat DRG Nav1.7: Sprague-Dawley rats
[6] = tested on: TTX-sensitive Nav channels in mouse DRG neuron; conditions: for 1.x/1.7: partially inactivated, mTTX-S / hNav1.7
[7] = CD-1 male mouse, 2 mg/kg s.c.
hNav1.7 [8] = biological target: T1, hNav1.7; test: cell-based; assay type: cell-based; conditions: for block of hNav1.7 current, in words: 100 pM; for 1.x/1.7: hNav1.7 / hNav1.7
hNav1.4 = hNav1.4 (Homo sapiens, UniProt P35499); test: cell-based; assay type: cell-based; conditions: Table 12
male CD-1 mice = conditions: mouse, in vivo

## C#CC[C@@H]1NC(=O)[C@@H]2CSSC[C@H](NC(=O)[C@H](Cc3ccc(O)cc3)NC(=O)[C@@H](N)CC#N)C(=O)N[C@@H](CCC(N)=O)C(=O)N[C@@H](CCCCN)C(=O)N[C@@H](Cc3c[nH]c4ccccc34)C(=O)N[C@@H](CCCC)C(=O)N[C@@H](Cc3c[nH]c4ccccc34)C(=O)N[C@@H]([C@@H](C)O)C(=O)N[C@H]3CSSC[C@H](NC(=O)[C@H](CCCNC(=N)N)NC(=O)[C@H](CC(C)C)NC(=O)CNC1=O)C(=O)N[C@@H](CCCCN)C(=O)N[C@@H](CC(C)C)C(=O)N[C@@H](Cc1c[nH]c4ccccc14)C(=O)N[C@H](C(=O)N[C@@H](CCCNC(=N)N)C(=O)N[C@@H](CCCCN)C(=O)N[C@@H](CCC(=O)O)C(=O)N[C@H](C(N)=O)[C@@H](C)CC)CSSC[C@H](NC(=O)[C@H](C)NC(=O)[C@H](CCCNC(=N)N)NC(=O)[C@H](CCCCN)NC(=O)[C@H](CO)NC(=O)[C@H](CC(=O)O)NC3=O)C(=O)N2 [CyA-[Nle6,Glu28]JzTx-V(1-29)]
[1]
  IC50: 9.25 nM

## C#CC[C@@H]1NC(=O)[C@@H]2CSSC[C@H](NC(=O)[C@H](Cc3ccc(O)cc3)NC(=O)[C@@H](N)CC#N)C(=O)N[C@@H](CCC(N)=O)C(=O)N[C@@H](CCCCN)C(=O)N[C@@H](Cc3c[nH]c4ccccc34)C(=O)N[C@@H](CCCC)C(=O)N[C@@H](Cc3c[nH]c4ccccc34)C(=O)N[C@@H]([C@@H](C)O)C(=O)N[C@H]3CSSC[C@H](NC(=O)[C@H](CCCNC(=N)N)NC(=O)[C@H](CC(C)C)NC(=O)CNC1=O)C(=O)N[C@@H](CCCCN)C(=O)N[C@@H](CC(C)C)C(=O)N[C@@H](Cc1c[nH]c4ccccc14)C(=O)N[C@H](C(=O)N[C@@H](CCCNC(=N)N)C(=O)N[C@@H](CCCCN)C(=O)N[C@@H](CCC(=O)O)C(=O)N[C@H](C(N)=O)[C@@H](C)CC)CSSC[C@H](NC(=O)[C@H](C)NC(=O)[C@H](CCCNC(=N)N)NC(=O)[C@H](CCCCN)NC(=O)[C@H](CO)NC(=O)[C@H](CC(=O)O)NC3=O)C(=O)N2 [compound 395]
[1]
  IC50: 9.25 nM
hNav1.7 [2]; Table 15
  IC50: 0.779 nM
In vivo [3]
  Cmax: 730 nM
  half-life: ~2.3 h
hNav1.5
  Nav1.5/Nav1.7: 256
In vivo [4]; 1 mg/kg
  Cmax: 79 nM
  Tmax: 1 h
In vivo [4]; 3 mg/kg
  Cmax: 430 nM
  Tmax: 3 h
In vivo [4]; 10 mg/kg
  Cmax: 970 nM
  Tmax: 3 h
hNav1.6
  Nav1.6/Nav1.7: 94
  IC50: 73.2 nM
[5]; 1 mg/kg s.c.
  mean Cmax over the rat DRG Nav1.7: 56 fold
[5]; 3 mg/kg s.c.
  mean Cmax over the rat DRG Nav1.7: 306 fold
[5]; 10 mg/kg s.c.
  mean Cmax over the rat DRG Nav1.7: 684 fold
[5]; Sprague-Dawley rats, 1, 3 or 10 mg/kg single s.c. administration
  tolerability: All the doses were tolerated
[6]
  IC50: 15.9 nM
[6]; TTX-sensitive current in mouse DRG neurons
  potency relative to wild type peptide, in words: equipotent
[7]
  mean Cmax over the mouse DRG Nav1.7 IC50: 46 fold

## C#CC[C@H](N)C(=O)N[C@@H](Cc1ccc(O)cc1)C(=O)N[C@H]1CSSC[C@@H]2NC(=O)[C@@H]3CSSC[C@@H](C(=O)N[C@@H](CCCNC(=N)N)C(=O)N[C@@H](CCCCN)C(=O)N[C@H](C(=O)N[C@H](C(N)=O)[C@@H](C)CC)[C@@H](C)CC)NC(=O)[C@H](Cc4c[nH]c5ccccc45)NC(=O)[C@H](CC(C)C)NC(=O)[C@H](CCCCN)NC(=O)[C@H](CSSC[C@H](NC(=O)[C@H]([C@@H](C)O)NC(=O)[C@H](Cc4c[nH]c5ccccc45)NC(=O)[C@H](CCCC)NC(=O)[C@H](Cc4c[nH]c5ccccc45)NC(=O)[C@H](CCCCN)NC(=O)[C@H](CCC(N)=O)NC1=O)C(=O)N[C@@H](CC(=O)O)C(=O)N[C@@H](CO)C(=O)N[C@@H](CCCCN)C(=O)N[C@@H](CCCNC(=N)N)C(=O)N[C@@H](C)C(=O)N3)NC(=O)[C@H](CCCNC(=N)N)NC(=O)[C@H](CC(C)C)NC(=O)CNC(=O)[C@H](CCC(=O)O)NC2=O [compound 425]
hNav1.7 [2]; Table 15
  IC50: 1.2 nM
hNav1.7 [8]; held at −77 mV, partially inactivated state
  block of hNav1.7 current, in words: fully blocked Nav1.7 current; also recorded: complete inhibition
hNav1.7 [8]; held at −140 mV, fully non-inactivated state
  block of hNav1.7 current, in words: fully blocked Nav1.7 current; also recorded: complete inhibition
hNav1.7 [8]; WCPC format
  improvement in hNav1.7 potency over wild type JzTx-V: ~200 fold and 190 fold
hNav1.7 [8]; fully non-inactivated
  1.x/1.7: 1
hNav1.7 [8]; partially inactivated
  1.x/1.7: 1
hNav1.6
  Nav1.6/Nav1.7: 57
  IC50: 67.9 nM
[6]
  IC50: 5.35 nM
  1.x/1.7: 6335
[6]; 1 nM as printed, mouse DRG neurons
  inhibition of TTX-sensitive sodium current, in words: almost complete inhibition
[6]; 100 nM
  block of TTX-sensitive Nav current, in words: blocked most TTX-sensitive Nav current
[6]; mouse DRG neurons
  fold more potent than JzTx-V in inhibition of TTX-sensitive current: about 3 fold

## C#CC[C@H](N)C(=O)N[C@@H](Cc1ccc(O)cc1)C(=O)N[C@H]1CSSC[C@@H]2NC(=O)[C@@H]3CSSC[C@@H](C(=O)N[C@@H](CCCNC(=N)N)C(=O)N[C@@H](CCCCN)C(=O)N[C@@H](CCC(=O)O)C(=O)N[C@H](C(N)=O)[C@@H](C)CC)NC(=O)[C@H](Cc4c[nH]c5ccc(Br)cc45)NC(=O)[C@H](CC(C)C)NC(=O)[C@H](CCCCN)NC(=O)[C@H](CSSC[C@H](NC(=O)[C@H]([C@@H](C)O)NC(=O)[C@H](Cc4c[nH]c5ccccc45)NC(=O)[C@H](CCCC)NC(=O)[C@H](Cc4c[nH]c5ccccc45)NC(=O)[C@H](CCCCN)NC(=O)[C@H](CCC(N)=O)NC1=O)C(=O)N[C@@H](CC(=O)O)C(=O)N[C@@H](CO)C(=O)N[C@@H](CCCCN)C(=O)N[C@@H](CCCNC(=N)N)C(=O)N[C@@H](C)C(=O)N3)NC(=O)[C@H](CCCNC(=N)N)NC(=O)[C@H](CC(C)C)NC(=O)CNC(=O)[C@H](CCC(=O)O)NC2=O [compound 858]
hNav1.7 [2]; Table 12, PatchXpress, tonic block
  IC50: 0.039 nM
hNav1.7 [2]; Table 15
  IC50: 0.059 nM
hNav1.4; PatchXpress, tonic block, read-out: PX hNav1.4 Tonic IC50
  IC50: 40.4 nM
hNav1.4; ratio of PX tonic IC50 values
  Nav1.4/Nav1.7: 1036
hNav1.7 [8]; 100 nM
  block of hNav1.7 current: approximately 90%
hNav1.7 [8]; WCPC, partially inactivated, hNav1.7, n=2, read-out: Mean IC50
  IC50: 0.13 nM
hNav1.7 [8]; manual WCPC
  potency against hNav1.7, in words: sub-nanomolar potent inhibitor
hNav1.6
  Nav1.6/Nav1.7: 829
  IC50: 49.2 nM
[6]
  IC50: 3.8 nM
  1.x/1.7: 29
[6]; 30 nM, C57 Black 6 mouse DRG neuron
  block of TTX-sensitive Nav current, in words: blocks most of TTX-sensitive Nav current
[6]; manual patch clamp
  potency on TTX-S current in mDRG neurons, in words: single digit-nanomolar inhibitor

## Cc1cccc(C)c1OCC(C)N (stereo not drawn) [mexilitine, reference compound]
Male CD-1 mice
  reversal of thermal hyperalgesia, positive control: sufficient to significantly reverse thermal hyperalgesia
